Data as given in the supplement of paper PMC10702517.
± gives the standard deviation.

Test: chemical recovery into PDMS from spiked human plasma; higher = better extraction
Details: pooled human plasma; extraction method: PES with PDMS; equilibration time (d): 3

With `CN(C)CCOC(c1ccccc1)c1ccccc1` [Diphenhydramine] as the compound, how does the “chemical recovery into PDMS” value read?
The value was 0.0114 ± 0.013%.

With `CN1C(=O)CC[C@H]1c1cccnc1` [Cotinine] as the compound, how does the “chemical recovery into PDMS” value read?
The value was 10.6 ± 2.5%.

Which “chemical recovery into PDMS” value does the source give for `CN/C(=N\[N+](=O)[O-])NCc1cnc(Cl)s1` [Clothianidin] here?
Its value is 1.39 ± 0.29%.

Which “chemical recovery into PDMS” value does the source give for `O=C1NCCN1Cc1ccc(Cl)nc1` [Imidacloprid-urea] here?
Its value is 10.2 ± 1.7%.

Which “chemical recovery into PDMS” value does the source give for `c1ccc2c(c1)=c1ccc3c4c(ccc=2c14)=c1ccccc1=3` [Indeno(1,2,3-cd)fluoranthene] here?
Its value is 79.7 ± 9.8%.

Same assay, conditions: pooled human plasma; extraction method: PES with PDMS; equilibration time (d): 6

Which “chemical recovery into PDMS” value does the source give for `CCCNCCOc1c(Cl)cc(Cl)cc1Cl` [Prochloraz BTS403-48] here?
Its value is 0.862 ± 0.22%.

With `CCOP(=O)(OCC)OCC` [Triethylphosphate] as the compound, how does the “chemical recovery into PDMS” value read?
The value was 15 ± 4.8%.

With `CCCCCCCCCCCC(=O)N(CCO)CCO` [Lauryl diethanolamide] as the compound, how does the “chemical recovery into PDMS” value read?
The value was 26.3 ± 2.7%.

With `c1cc2c3c(c1)ccc1cccc(c13)C2` [4H-Cyclopenta(def)phenanthrene] as the compound, how does the “chemical recovery into PDMS” value read?
The value was 108 ± 43%.

Which “chemical recovery into PDMS” value does the source give for `CCCC1COC(Cn2cncn2)(c2ccc(Cl)cc2Cl)O1` (stereo unspecified) [Propiconazole] here?
The value was 40.7 ± 1.6%.

With `COC(=O)Nc1nc2cc(C(=O)c3ccccc3)ccc2[nH]1` [Mebendazole] as the compound, how does the “chemical recovery into PDMS” value read?
The value was 23.6 ± 1.8%.

With `Cc1cccc(C)c1N(Cn1cccn1)C(=O)C[S+](C)[O-]` (stereo unspecified) [Metazachlor BH 479-11] as the compound, how does the “chemical recovery into PDMS” value read?
Its value is 11.1 ± 1.1%.

Which “chemical recovery into PDMS” value does the source give for `COc1ccccc1Oc1c(NS(=O)(=O)c2ccc(C(C)(C)C)cc2)nc(-c2ncccn2)nc1OCCO` [Bosentan] here?
The value was 0.935 ± 0.25%.

For `CCCc1nc2c(C)cc(-c3nc4ccccc4n3C)cc2n1Cc1ccc(-c2ccccc2C(=O)O)cc1` [Telmisartan], which “chemical recovery into PDMS” value is on record?
Its value is 1.28 ± 0.6%.

Which “chemical recovery into PDMS” value does the source give for `O=C1Nc2ccc(Cl)cc2C(c2ccccc2)=NC1O` (stereo unspecified) [Oxazepam] here?
The value was 3.9 ± 0.52%.

For `O=Cc1ccccc1Nc1ccccc1Cl` [2-(2-(Chlorophenyl)amino)benzaldehyde], which “chemical recovery into PDMS” value is on record?
Its value is 43.5 ± 3.3%.

With `CCCCCCCCn1sccc1=O` [2-Octyl-4-isothiazolin-3-one] as the compound, how does the “chemical recovery into PDMS” value read?
The value was 36.3 ± 1.2%.

For `Nc1ccc2c(n1)[nH]c1ccccc12` [2-Amino-9H-pyrido[2,3-b]indole (AalphaC)], which “chemical recovery into PDMS” value is on record?
The value was 5.65 ± 2.5%.

With `CCNc1nc(NCC)nc(SC)n1` [Simetryn] as the compound, how does the “chemical recovery into PDMS” value read?
The value was 28.9 ± 5.6%.

Which “chemical recovery into PDMS” value does the source give for `CSc1nnc(C(C)(C)C)c(=O)n1N` [Metribuzin] here?
The value was 29.4 ± 1.2%.

Which “chemical recovery into PDMS” value does the source give for `Cc1cc(O)cc(C)c1[S+](C)[O-]` (stereo unspecified) [Methiocarb-sulfoxide phenol] here?
The value was 20.7 ± 1.2%.

With `Cc1nc(N(C)C)nc(OC(=O)N(C)C)c1C` [Pirimicarb] as the compound, how does the “chemical recovery into PDMS” value read?
The value was 34 ± 1.7%.

With `CCCN(CCC)c1c([N+](=O)[O-])cc(S(N)(=O)=O)cc1[N+](=O)[O-]` [Oryzalin] as the compound, how does the “chemical recovery into PDMS” value read?
Its value is 11.1 ± 1.2%.

For `CC(C)Nc1nc(N)nc(Cl)n1` [Desethylatrazine], which “chemical recovery into PDMS” value is on record?
Its value is 18.5 ± 2.4%.

For `CN[C@H]1CC[C@@H](c2ccc(Cl)c(Cl)c2)c2ccccc21` [Sertraline], which “chemical recovery into PDMS” value is on record?
The value was 0.535 ± 0.27%.

For `c1ccc2ncccc2c1` [Quinoline], which “chemical recovery into PDMS” value is on record?
The value was 4.43 ± 4.2%.

For `O=C(NC(=O)c1c(F)cccc1F)Nc1ccc(Cl)cc1` [Diflubenzuron], which “chemical recovery into PDMS” value is on record?
Its value is 40.4 ± 5%.

With `O=c1ccc2ccccc2[nH]1` [2-Hydroxyquinoline] as the compound, how does the “chemical recovery into PDMS” value read?
Its value is 17.1 ± 2.4%.

With `C1=Cc2ccccc2Nc2ccccc21` [Iminostilbene] as the compound, how does the “chemical recovery into PDMS” value read?
The value was 1.36 ± 0.63%.

Which “chemical recovery into PDMS” value does the source give for `Brc1ccc(Oc2c(Br)cc(Br)cc2Br)c(Br)c1` [BDE100] here?
The value was 95.9 ± 6%.

Which “chemical recovery into PDMS” value does the source give for `CCC(=O)O[C@]1(C(=O)CCl)[C@@H](C)C[C@H]2[C@@H]3CCC4=CC(=O)C=C[C@]4(C)[C@@]3(F)[C@@H](O)C[C@@]21C` [Clobetasol propionate] here?
Its value is 37.2 ± 3.9%.

Which “chemical recovery into PDMS” value does the source give for `Fc1ccc([C@@H]2CCNC[C@H]2COc2ccc3c(c2)OCO3)cc1` [Paroxetine] here?
The value was 0.637 ± 0.5%.

Which “chemical recovery into PDMS” value does the source give for `COCCN(C(=O)C(=O)O)c1c(C)cccc1C` [Dimethachlor OA] here?
The value was 0.00348 ± 0.006%.

With `Oc1cc(Cl)ccc1Oc1ccc(Cl)cc1Cl` [Triclosan] as the compound, how does the “chemical recovery into PDMS” value read?
Its value is 22 ± 1.5%.

With `O=P(OCCCl)(OCCCl)OCCCl` [Tris(2-chloroethyl)phosphate] as the compound, how does the “chemical recovery into PDMS” value read?
The value was 40.8 ± 2.8%.

For `CN1CCN(C)C1=O` [1,3-Dimethyl-2-imidazolidinone], which “chemical recovery into PDMS” value is on record?
The value was 3.27 ± 3.2%.

Which “chemical recovery into PDMS” value does the source give for `CN1C(=O)CC[C@H]1c1cccnc1` [Cotinine] here?
Its value is 11.6 ± 1.5%.

For `Cc1nc2ccccc2s1` [2-Methylbenzothiazole], which “chemical recovery into PDMS” value is on record?
Its value is 5.9 ± 0.22%.

For `CN/C(=N\[N+](=O)[O-])NCc1cnc(Cl)s1` [Clothianidin], which “chemical recovery into PDMS” value is on record?
The value was 1.64 ± 0.42%.

For `O=C1NCCN1Cc1ccc(Cl)nc1` [Imidacloprid-urea], which “chemical recovery into PDMS” value is on record?
The value was 11.7 ± 2%.

Which “chemical recovery into PDMS” value does the source give for `c1ccc2c(c1)=c1ccc3c4c(ccc=2c14)=c1ccccc1=3` [Indeno(1,2,3-cd)fluoranthene] here?
Its value is 77.5 ± 5.2%.
